Assay results reported in US10173999B2, “Cyclic amine derivative and pharmaceutical use thereof” (Toray Industries, Inc., priority 2015, dated 2019).
Where a name gives a salt, the structure may show the parent alone.

Test: Stability test in mouse liver microsomes
Type: in vitro ADME
Conditions: pH 7.4; mouse liver microsomes 0.5 mg/mL, test compound 2 μmol/L, 37° C., 0-30 min; read-out: Hepatic intrinsic clearance, Mouse
Procedure: Experiment was performed using the compound of Example 11, Comparative Example 1 or Comparative Example 6 as a test compound and human liver microsomes (from Xenotech), monkey liver microsomes (from Xenotech), dog liver microsomes (from Xenotech) or mouse liver microsomes (from Xenotech) as the liver microsomes.
The reagents to be used in the stability test in liver microsomes were prepared as follows. A D-glucose 6-phosphate disodium salt (hereinafter referred to as G6P) was dissolved with distilled water to prepare an aqueous solution of G6P (100 mmol/L). Glucose 6-phosphate dehydrogenase (1000 units) from Yeast (hereinafter referred to as G6PDH) was dissolved with distilled water (5 mL) to prepare an aqueous solution of G6PDH (200 units/mL). MgCl2 was dissolved with distilled water to prepare an aqueous solution of MgCl2 (100 mmol/L). […]
With respect to the chromatogram of each well obtained by LC/MS analysis or LC/MS/MS analysis, the test compound residual ratio (%) at each reaction time t (min) was calculated based on the peak area at the reaction time of 0 minute as 100%. […]

SMILES: CN(C)C1CCN(C(=O)C[C@H](O)c2nccn2C)CC1 [Example 11, (S)-1-(4-(dimethylamino)piperidin-1-yl)-3-hydroxy-3-(1-methyl-1H-imidazol-2-yl)propan-1-one]
- microsomal CLint at 2 μmol/L: 3 µL/min/mg

SMILES: CN(C)C1CCN(C(=O)CCc2nccn2C)CC1 [Comparative Example 1, 1-(4-(dimethylamino)piperidin-1-yl)-3-(1-methyl-1H-imidazol-2-yl)propan-1-one hydrochloride]
- microsomal CLint at 2 μmol/L: 4 µL/min/mg
